Experimental data from patent US20020142297A1, “Compositions and methods for imaging gene expression” (The General Hospital Corporation, a Massachusetts …, priority 1997, published 2002).

Columns and labels:
[1] = In vivo detection of RPCs in muscle tissue (gamma imaging after i.v. 99mTc gluceptate); conditions: rats, rectus femoris muscle injected with RPC; 1 hour after i.v. injection of 0.5 mCi 99mTc gluceptate
Protocol: RPCs having the sequences GGGCGGGCGGGC (SEQ ID NO: 13) and GGGCGGGC (SEQ ID NO: 14) were dissolved in sterile saline to give a concentration of 1 μM thiol (i.e., the —SH function groups of cysteine residues). 100 μl of this solution was injected into the rectus femoris muscles of anesthetized rats. Ten minutes after injection, 0.5 mCi of ^99mTc gluceptate-[bis(oxotechnetate(v)glucoheptonate] anion was injected via intravenous catheter. The animals were imaged at 10 minutes and at 1 hour after the injection of the isotope. It was suspected that Tc glucoheptonate can permeate into the interstitium and be taken up non-specifically (e.g., by pinocytosis) by resident cells, thus creating background activity.
Nonetheless, the radioactivity that had accumulated in the injected muscle 1 hour after injection with the RPC containing three consecutive GGGC repeats (SEQ ID NO: 13) or two consecutive GGGC repeats (SEQ ID NO: 14) were 3- or 2-fold higher, respectively, than the radioactivity that had accumulated in the contralateral (control) muscle at that time. No differences in radioactivity accumulated in injected vs. control muscles were detected in animals injected with saline, or an RPC pretreated with N-ethylmaleimide to block oxotechnetate-binding sites.

[2] = Labeling of RPC with 99mTc-glucoheptonate and stability of the metal-RPC complex by reverse-phase HPLC; type: binding
Protocol: The tetrapeptide WGGC (SEQ ID NO: 1) was incubated with ^99mTc-gluccheptonate. […] The label was ascertained to be stably associated with the peptide for at least 24 hours as determined by reverse-phase high performance liquid chromatography (HPLC) (see, FIG. 7).
FIGS. 6 and 7 are the HPLC traces corresponding to the binding 30 minutes and 24 hours post-injection, respectively. In both traces, the bold line represents radioactivity and the thin line represents absorbance. The naked ^99mTc-glucoheptonate has a retention time of 2 minutes, while the RPC-Tc complex has a retention time of 5 to 9 minutes.

| Substance | radioactivity accumulated in the injected muscle vs. the contralateral (control) muscle [1] [fold] | radiation at 2 minutes (retention time of naked 99mTc-glucoheptonate) ([2]; 30 minutes, HPLC radioactivity trace (FIG. 6)) | share of total integral at 2 minutes (retention time of naked 99mTc-glucoheptonate) ([2]; 24 hours, HPLC radioactivity trace (FIG. 7)) [%] | labeling of the peptide ([2]; incubated with 99mTc-glucoheptonate, within 30 minutes) [%] | time the label is stably associated with the peptide ([2]; reverse-phase HPLC) |
| --- | --- | --- | --- | --- | --- |
| GGGCGGGC [SEQ ID NO: 14, RPC containing two consecutive GGGC repeats] | 2 | – | – | – | – |
| GGGCGGGCGGGC [SEQ ID NO: 13] | 3 | – | – | – | – |
| WGGC | – | no radiation is observed above the baseline | 0.468 | 99 | at least 24 hours |
